According to patent publication US5162318A, “Benzimidazolinone derivatives” (Yamanouchi Pharmaceutical Co., Ltd., priority 1990, dated 1992):
Counter-ions that a name gives are not always drawn.

Tests used:
[1] = tested on: secretion of the endogenous pulmonary surfactant; details: Post et al.: Lung 161, 349-359, 1983; cited from earlier work
[2] = tested on: pulmonary surfactant secretion; assay: Stimulatory effect on pulmonary surfactant secretion (disaturated phosphatidylcholine in bronchoalveolar lavage fluid); assay type: in vivo, guinea pig (male Hartley); details: guinea pigs; for stimulation of pulmonary surfactant secretion (in words): conclusion from Table 1, 50 mg/kg i.p.; for Pharmacological activity: % increase of disaturated phosphatidylcholine (DSPC) compared to control values: 50 mg/kg i.p. once, lavage 3 hours later, number of animals in parentheses, * significantly different from control values (p < 0.05), Compounds A and B not marked *
Procedure: The stimulatory effect of the compound of the present invention on pulmonary surfactant secretion In the experiment, male Hartley guinea pigs weighing 300-350 g were used. Methods 50 mg/kg of the test compound was intraperitoneally administered to guinea pigs once. Three hours later, the animals were anesthetized with 100 mg/kg of pentobarbital sodium and sacrificed by bleeding from the abdominal aorta and vena cava. Then, bronchoalveolar lavage with 10 ml/kg of ice-cooled physiological saline was performed twice. The combined bronchoalveolar lavage fluid was centrifuged at 1,000 rpm for 10 minutes at 4° C. From the supernatant of bronchoalveolar lavage fluid, the lipid was extracted in accordance with the method of Folch et al. (Journal of Biological Chemistry, 226, 497-502, 1957). The characteristic component of pulmonary surfactant, i.e., disaturated phosphatidylcholine was extracted by the method of Gilfillan et al. (Journal of Lipid Research, 24, 1651- 1656, 1983). The disaturated phosphatidylcholine was assayed with Nescoat PL Kit-K (Nippon Shoji Co., Ltd.) and the percent increase compared to a control group was determined (M. Takayama, et al.: Clin. Chim. Acta, 79, 93-98, 1977).

Nc1c(Br)cc(Br)cc1CN[C@H]1CC[C@H](O)CC1 [ambroxol hydrochloride]
activity to promote secretion of the endogenous pulmonary surfactant (in words) [1]: only substance known to have such activity

CCN(CC)CCn1c(=O)[nH]c2ccccc21 [Compound B, 1,3Dihydro-1-(2-diethylaminoethyl)-2H-benzimidazol-2-one]
stimulation of pulmonary surfactant secretion (in words) [2]: do not stimulate secretion of pulmonary surfactant but rather tend to decrease the secretion | Pharmacological activity: % increase of disaturated phosphatidylcholine (DSPC) compared to control values [2]: -20.7%

CN(C)CCn1c(=O)[nH]c2ccc(Cl)cc21.Cl [11(4), 6-Chloro-1,3-dihydro-1-(2-dimethylaminoethyl)-2H-benzimidazol-2-one hydrochloride]
Pharmacological activity: % increase of disaturated phosphatidylcholine (DSPC) compared to control values [2]: 37.8 ± 13.2%

CN(C)CCn1c(=O)[nH]c2ccccc21.Cl [Example 12(5), 1,3-dihydro-1-(2-dimethylaminoethyl)-2H-benzimidazol-2-one hydrochloride]
Pharmacological activity: % increase of disaturated phosphatidylcholine (DSPC) compared to control values [2]: 27.4 ± 4.9%

CN(C)CCn1c(=O)[nH]c2ccc(Br)cc21.Cl [3(5), 6-Bromo-1,3-dihydro-1-(2-dimethylaminoethyl)-2H-benzimidazol-2-one hydrochloride]
Pharmacological activity: % increase of disaturated phosphatidylcholine (DSPC) compared to control values [2]: 27.9 ± 6.2%

CN(C)CCCn1c(=O)[nH]c2ccccc21 [Compound A, 1,3Dihydro-1-(3-dimethylaminopropyl)-2H-benzimidazol-2-one]
stimulation of pulmonary surfactant secretion (in words) [2]: do not stimulate secretion of pulmonary surfactant but rather tend to decrease the secretion | Pharmacological activity: % increase of disaturated phosphatidylcholine (DSPC) compared to control values [2]: -9.3%

Cl.O=c1[nH]c2ccc(Cl)cc2n1CCN1CCCC1 [19(4), 6-Chloro-1,3-dihydro-1-[2-(1-pyrrolidinyl)ethyl]-2H-benzimidazol-2-one hydrochloride]
Pharmacological activity: % increase of disaturated phosphatidylcholine (DSPC) compared to control values [2]: 33.1 ± 8.3%

CN(C)CCn1c(=O)[nH]c2c(Br)cc(Br)cc21.Cl [4(3), 4,6-Dibromo-1,3-dihydro-1-(2-dimethylaminoethyl)-2H-benzimidazol-2-one hydrochloride]
Pharmacological activity: % increase of disaturated phosphatidylcholine (DSPC) compared to control values [2]: 32.3 ± 7.0%
